The text below walks through data of PMC9100673, “Acridine Based N-Acylhydrazone Derivatives as Potential Anticancer Agents: Synthesis, Characterization and ctDNA/HSA Spectroscopic Binding Properties” (Molecules, 2022).

The term IC50 denotes the point on the concentration scale where inhibition reaches its midpoint.

Assay [1] deals with T1, hTopo I (Homo sapiens, UniProt P11387).
T1 sequence (P11387 1-765): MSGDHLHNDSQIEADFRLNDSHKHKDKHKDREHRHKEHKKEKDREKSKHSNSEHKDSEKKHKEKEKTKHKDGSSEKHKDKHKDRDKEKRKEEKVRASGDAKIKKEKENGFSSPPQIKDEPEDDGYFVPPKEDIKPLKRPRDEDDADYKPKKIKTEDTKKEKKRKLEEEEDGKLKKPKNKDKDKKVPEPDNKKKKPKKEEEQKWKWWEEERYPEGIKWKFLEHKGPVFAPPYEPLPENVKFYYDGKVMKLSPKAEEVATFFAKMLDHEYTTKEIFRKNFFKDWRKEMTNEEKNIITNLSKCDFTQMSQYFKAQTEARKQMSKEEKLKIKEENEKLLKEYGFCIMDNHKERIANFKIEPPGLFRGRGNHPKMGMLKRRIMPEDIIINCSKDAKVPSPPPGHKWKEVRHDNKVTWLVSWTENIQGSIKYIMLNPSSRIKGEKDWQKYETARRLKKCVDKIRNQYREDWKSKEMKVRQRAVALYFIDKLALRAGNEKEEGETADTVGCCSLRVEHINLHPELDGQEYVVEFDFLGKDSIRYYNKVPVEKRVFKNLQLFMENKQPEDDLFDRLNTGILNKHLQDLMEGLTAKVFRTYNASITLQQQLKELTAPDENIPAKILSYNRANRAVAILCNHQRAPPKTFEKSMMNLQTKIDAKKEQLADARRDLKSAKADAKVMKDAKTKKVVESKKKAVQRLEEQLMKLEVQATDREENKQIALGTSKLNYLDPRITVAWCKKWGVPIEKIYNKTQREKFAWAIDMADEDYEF
Kind of assay: Topo I DNA relaxation assay. Format: biochemical. The following applies: 25, 50 and 100 μM; pBR322. An excerpt:
Topo I enzymes convert the supercoiled (SC) form DNA to relaxed (R) form and nicked-open-circular (NOC) DNA. The NOC form is circular dsDNA with one nicked strength; Topo I nicked only one strength. SC form DNA migrate the fastest in gel, NOC migrates the slowest, and the migration speed of R DNA is in the middle of these two forms. In an electrophoretogram with active Topo I enzymes, SC DNA is not observed, but R and NOC DNA forms can be seen. In the case of Topo I inhibition, bends for R and NOC DNA forms are not observed. The results electrophoretogram effect of derivatives 3a–3d on activity topoisomerase I show Figure 12A.
Figure 12 The result of Topo I/IIα activity tests in the presence of derivatives 3a–3d. (A) Electrophoretogram for inhibition relaxation activity of hTopo I (2.5 U) by derivatives 3a–3d in concentrations of 25, 50 and 100 μM (lane 5–16), substrate-free SC pBR322 (0.5 μg) (lane 4), camptothecin (CPT, lane 2) and plasmid+hTopo I control (lane 3). (NOC—nicked-opened DNA form; R—relaxed DNA form; SC—supercoiled DNA form). (B) Electrophoretogram for inhibition decatenation activity of hTopo IIα (0.5 U) by derivatives 3a–3d in concentrations of 25, 50 and 100 μM (lane 5–16), substrate-free catenated kinetoplast DNA (cat kDNA) (0.5 μg) (lane 4), m-Amsacrine (AMSA, lane 2) and plasmid +hTopo IIα control (lane 3). (decat DNA—decatenated DNA; NC—nicked circular DNA form; L—linear DNA form).

The test system of assay [2] is A549 cells. Briefly: MTT assay, metabolic activity of A549 cells. Format: cell-based, human. As to conditions: for IC50: Homo sapiens; for SI, selectivity index: 48 h, IC50 CCD-18Co / IC50 A549. The procedure: (§1) The effect of acridine-benzohydrazides (3a–3d) on the metabolic activity of the lung adenocarcinoma cell line (A549) and the normal colon fibroblast cell line (CCD-18Co) was evaluated using a 3-(4,5-dimethylthiazol-2-yl)-2,5-diphenyltertrazolium bromide (MTT) cell assay. This assay is based on the metabolization of yellow MTT to purple formazan crystal by mitochondrial dehydrogenases, and therefore only metabolic active cells are capable of that reaction. The CCD-18Co cell line was used as a control to check for derivatives selectivity. The doxorubicin belongs to a group of anthracyclines, which represent the chemotherapeutic regiments for the treatment of NSCLC (non-small cell lung carcinoma) even today, and acts as antineoplastic mainly by interaction with the DNA topoisomerase II and by creating DNA single- and double-strand breaks. Previous studies described detailed cytotoxic effects of doxorubicin in the human lung adenocarcinoma A549 cell line. Doxorubicin resembles our compounds in its biological action; therefore, it was employed as a positive control.
(§2) Human lung carcinoma cell line A549 and CCD-18Co colon fibroblasts were purchased from the American Type Culture Collection (ATCC, Rockville, MD, USA). The A549 cells were cultured in a complete RPMI-1640 medium (Sigma-Aldrich, St. Louis, MO, USA) and CCD-18Co cells were cultured in a minimum essential medium (MEM) (PAN-Biotech GmbH, Aidenbach, Germany) at 37 °C, 95% humidity and 5% CO2. The media were supplemented with 10% fetal bovine serum (FBS, Biosera, Nuaille, France) and antibiotics (1% Antibiotic-Antimycotic 100 × and 50 × 10^−3 g L^−1 gentamicin, Biosera). Prior to the selected treatments, cells were seeded on 6- and/or 96-well plates (TPP, Trasadingen, Switzerland) and left to settle for 24 h. The acridine compounds solutions (at concentrations ranging from 5–75 µM) were then added to cells for 24 or 48 h, and analysis was subsequently performed.
(§3) MTT assays were performed in order to evaluate changes in the metabolic activity of cells that had occurred as a consequence of treatment with the acridine compounds. A549 cells (15 × 10^3 cells/cm^2) and CCD-18Co (15.625 × 10^3 cells/cm^2) were seeded in 96-well microplates. The A549 cells were treated for 24 and 48 h, and the CCD-18Co cells were treated for 48 h with different concentrations (5, 25, 50 and 75 µM) of the derivatives. After the treatment, the MTT (3-(4,5-dimethylthiazol-2-yl)-2,5-diphenyltertrazolium bromide) solution in PBS (5 mg mL^−1) was added to each well. The reaction was stopped after 4 h incubation, and the formazan was dissolved by the addition of SDS at a final concentration of 3.3%. The absorbance of formazan (λ = 584 nm) was measured using a BMG FLUOstar Optima spectrometer (BMG Labtech GmbH, Offenburg, Germany). The results were evaluated as percentages of the absorbance of the untreated control. Results are presented as the average percentage of cells from three independent experiments. IC50 values for the derivatives were extrapolated from a sigmoidal fit (dose-response curve) to the metabolic activity data using OriginPro 8.5.0 SR1 (OriginLab Corp., Northampton, MA, USA).
In general terms: Formazan colour is commonly taken as a measure of viable cells.

The subject of assay [3] is CCD-18Co cells. Kind of assay: MTT assay, metabolic activity of CCD-18Co fibroblasts. Format: cell-based, human. The following applies: 48 h; for IC50: Homo sapiens, CCD-18Co. As to the method:
as §1, §2, §3

Take `O=C(N/N=C/c1cccc2cc3ccccc3nc12)c1ccccc1` [3a, N′-[(E)-(Acridin-4-yl)methylidene]benzohydrazide]: the “inhibition of relaxation activity of Topo I” value (from here on “inhibition”) in assay [1] is reported as “did not have the potential to inhibit”. For the same compound, the IC50 in assay [2] (A549, 24 h) is more than 75 µM; in assay [2] (A549, 48 h), 43 µM; in assay [3] it was more than 75 µM. In assay [3] (from IC50), the “times less activity than doxorubicin in CCD18-Co” value was more than 15.

On to `O=C(N/N=C/c1cccc2cc3ccccc3nc12)c1ccc(Br)cc1` [3d, N′-[(E)-Acridin-4-ylmethylidene]-4-bromobenzohydrazide], for which, in assay [1], the “inhibition” value was “might inhibit the relaxation activity of Topo I”. In assay [2], the “SI, selectivity index” value was 0.31. Besides, the IC50 in assay [2] (A549, 24 h) is more than 75 µM; in assay [2] (A549, 48 h) it was 55 µM; in assay [3], 17 µM.

As to `O=C(N/N=C/c1cccc2cc3ccccc3nc12)c1ccc(F)cc1` [3b, N′-[(E)-Acridin-4-ylmethylidene]-4-fluorobenzohydrazide], in assay [1], the “inhibition” value is “did not have the potential to inhibit”. Also, the “SI, selectivity index” value in assay [2] is given as 0.22. Besides, the IC50 was more than 75 µM in assay [2] (A549, 24 h); 37 µM in assay [2] (A549, 48 h); 8 µM in assay [3].

`O=C(N/N=C/c1cccc2cc3ccccc3nc12)c1ccc(Cl)cc1` [3c, N′-[(E)-Acridin-4-ylmethylidene]-4-chlorobenzohydrazide]: the “inhibition” value in assay [1] is “might inhibit the relaxation activity of Topo I”. Further, the “SI, selectivity index” value in assay [2] was 0.36. Besides, the IC50 was 73 µM in assay [2] (A549, 24 h); 45 µM in assay [2] (A549, 48 h); 16 µM in assay [3].
